Data from patent publication US4762848A, “1,3-thiazoles and their use as immunomodulators” (Hoechst Aktiengesellschaft, priority 1985, dated 1988).

Columns and labels:
[1] = test system: mouse peritoneal macrophages; assay: Pinocytosis of colloidal gold (198Au) by peritoneal macrophages of treated mice; assay type: in vivo, NMRI mice
Procedure: (§1) This entailed investigation of the effect of the test substance obtained as in exemplary embodiment 7 on the stimulation of peritoneal macrophages in 6-8 week old NMRI mice. Female mice received the test substance in parenteral or oral doses of 25 mg/kg, 50 mg/kg, 100 mg/kg and 200 mg/kg. Buffered saline solution was administered to a control group. The mice were sacrificed three days after the injections, and the peritoneal macrophages of the animals were examined for their state of activation. The secretion of the lysosomal enzymes (β-galactosidase, β-glucuronidase and N-acetyl-β-D-glucosaminidase) was determined as one measure of macrophage activation. […] The level of oxidative metabolism in macrophages is taken as another measure of their state of activation. This activity is measured with the assistance of a biolumate by determination of the chemiluminescence.
(§2) For this purpose, either 3×10^6 macrophages were cultured with 1 ml of TC 199 culture medium in Petri dishes of diameter 30 mm or 10^6 macrophages were cultured with 100 μl of medium in round-bottomed polyethylene tubes (for determination of the chemiluminescence), with 5% CO2 and at 37° C.
(§3) After incubation for one hour, the cultures were washed to remove floating cells. The chemiluminescence (tube culture) was then determined directly, whereas the Petri dishes were incubated for a further 24 hours at 37° C. and then the enzyme and pinocytosis activities in the cultures were determined.
The quantitative determination of the pinocytosis activity of mononuclear phagocytes was carried out by the method of Davies et al. (Davies, P., Allison, A. C. and Haswell, A. D.; Biochem. Biophys. Res. Com. 52, 627, 1973). Radioactive colloidal gold (^198 Au) with a particle size of 20 nm and a specific activity of 4-12 mCi/mg of Au was used for this. The results in Table 4 illustrate the effect of the test substance obtained as in Example 7 on the efficiency of endocytosis.

Candida albicans = assay: Therapeutic treatment of chronic Candida albicans infection; assay type: in vivo, female Balb/c mice infected with Candida albicans; conditions: for Urine infected with C. albicans d19 / Urine infected with C. albicans d24 / Kidneys infected with C. albicans / Necrotic kidneys: days 3-15; for Urine infected with C. albicans d19: day 19; for Urine infected with C. albicans d24: day 24; for Kidneys infected with C. albicans / Necrotic kidneys: day 26
Procedure: Increase in the Resistance of Balb/c Mice to Infection with Candida albicans
(a) Therapeutic treatment
For the therapeutic treatment of chronic Candida albicans infection, female Balb/c mice (16/group) were infected intravenously with Candida albicans (2.5×10^5 cfu/mouse) (day 0). After the infection had taken place, the animals were treated intraperitoneally on 13 consecutive days (days 3-15) with the test substance obtained as in Example 7; the concentrations were 0.5, 2.0, 5.0, 10.0, 30.0 and 60.0 mg/kg. The control animals received administrations of physiological saline solution. Urine was collected from the animals on days 19 and 24, and the organism count was determined. On day 26, the animals were sacrificed, and the organism count and the necroses in the kidneys were determined.

[2] = test system: cellular immune response (DTH reaction) to sheep erythrocytes; assay: Delayed type hypersensitivity (DTH) foot swelling reaction to sheep erythrocytes; assay type: in vivo, female NMRI mice; conditions: mice, i.p. and p.o.
Procedure: Effect On The Cellular Immunological Reaction, of the Delayed Type, to Sheep Erythrocytes (Delayed Type Hypersensitivity, DTH)
Either 10^6 or 10^9 red blood cells from sheep were administered intravenously to each animal in groups of 5 female NMRI mice weighing 18-20 g. Sheep erythrocytes are regarded in immunology as a standard test substance (antigen) for the induction of cellular and humoral immune reactions. In particular, this test provides information about the functioning of the T-cell-dependent component (T-helper cells) of the immune system. The test substance obtained as in exemplary embodiment 7 ([2-(3-carboxy-1-propylthio)-4 -methyl-1,3-thiazol-5-yl]acetic acid) was administered intraperitoneally and perorally, respectively, in the concentrations 10-100 mg/kg in physiological saline solution on days -3, -2, -1 and 0.After 5 days, each animal received 2×10^8 sheep erythrocytes injected into the underside of the foot and, 24 hours later, the swelling of the foot was measured. The foot swelling is induced by a skin reaction of the delayed type (delayed type hypersensitivity, DTH) and is, as is known to the expert, a measure of the cellular immune response (Collins, F. M. and Mackaness, G. B., J. Immunol. 101, 830-845, 1968). […]

[3] = test system: mouse peritoneal macrophages; assay: Release of lysosomal hydrolase enzymes from peritoneal macrophages of treated mice; assay type: in vivo, NMRI mice; conditions: for N-Ac-Glu % release: N-acetyl-β-D-glucosaminidase; for β-Gal % release: β-galactosidase; for β-Glu % release: β-glucuronidase
Procedure: as §1, §2, §3
It can be seen from Table 3 that macrophages from control mice release only small amounts of lysosomal enzymes (β-glucuronidase, β-galactosidase and N-acetyl-β-D-glucosaminidase) into the culture supernatant. […] It is evident that the test substance has a stimulant action on macrophage activity and contributes to an increase in enzyme release.

For `Cc1nc(SCCCC(=O)O)sc1CC(=O)O` [Example 7, [2-(3-Carboxy-1-propylthio)-4-methyl-1,3-thiazol-5-yl]acetic acid], the “efficiency of pinocytosis of mouse macrophages” value (“efficiency” for short) ([1]; 25 mg/kg, 1 × intraperitoneal) was 0.415 × 10^3 cpm, the “efficiency” value ([1]; 25 mg/kg, 1 × oral) was 0.365 × 10^3 cpm and the “efficiency” value ([1]; 50 mg/kg, 1 × intraperitoneal) was 0.558 × 10^3 cpm. The “efficiency” value ([1]; 50 mg/kg, 1 × oral) was 0.448 × 10^3 cpm, the “efficiency” value ([1]; 100 mg/kg, 1 × intraperitoneal) was 0.718 × 10^3 cpm and the “efficiency” value ([1]; 100 mg/kg, 1 × oral) was 0.661 × 10^3 cpm. For the same molecule, the “efficiency” value ([1]; 200 mg/kg, 1 × intraperitoneal) was 0.862 × 10^3 cpm, the “efficiency” value ([1]; 200 mg/kg, 1 × oral) was 0.739 × 10^3 cpm and the “Urine infected with C. albicans d19” value (Candida albicans; 0.5 mg/kg i.p.) was 0%. The “Urine infected with C. albicans d24” value (Candida albicans; 0.5 mg/kg i.p.) was 6%, the “Kidneys infected with C. albicans” value (Candida albicans; 0.5 mg/kg i.p.) was 27% and the Necrotic kidneys (Candida albicans; 0.5 mg/kg i.p.) was 27%. For the same molecule, the “Urine infected with C. albicans d19” value (Candida albicans; 2.0 mg/kg i.p.) was 6%, the “Urine infected with C. albicans d24” value (Candida albicans; 2.0 mg/kg i.p.) was 6% and the “Kidneys infected with C. albicans” value (Candida albicans; 2.0 mg/kg i.p.) was 13%. For the same molecule, the Necrotic kidneys (Candida albicans; 2.0 mg/kg i.p.) was 7%, the “Urine infected with C. albicans d19” value (Candida albicans; 5.0 mg/kg i.p.) was 0% and the “Urine infected with C. albicans d24” value (Candida albicans; 5.0 mg/kg i.p.) was 7%. For the same molecule, the “Kidneys infected with C. albicans” value (Candida albicans; 5.0 mg/kg i.p.) was 27%, the Necrotic kidneys (Candida albicans; 5.0 mg/kg i.p.) was 47% and the “Urine infected with C. albicans d19” value (Candida albicans; 10.0 mg/kg i.p.) was 7%. The “Urine infected with C. albicans d24” value (Candida albicans; 10.0 mg/kg i.p.) was 21%, the “Kidneys infected with C. albicans” value (Candida albicans; 10.0 mg/kg i.p.) was 29% and the Necrotic kidneys (Candida albicans; 10.0 mg/kg i.p.) was 43%. The “Urine infected with C. albicans d19” value (Candida albicans; 60.0 mg/kg i.p.) was 13%, the “Urine infected with C. albicans d24” value (Candida albicans; 60.0 mg/kg i.p.) was 13% and the “Kidneys infected with C. albicans” value (Candida albicans; 60.0 mg/kg i.p.) was 38%. For the same molecule, the Necrotic kidneys (Candida albicans; 60.0 mg/kg i.p.) was 31%, the “dose for optimal action in chronic Candida albicans infection” value (Candida albicans; therapeutic i.p. treatment, mice) was 0.5 to 5.0 mg/kg and the “dose for optimum stimulation of the cellular immune response” value [2] was 20 to 40 mg/kg. For the same molecule, the N-Ac-Glu % release ([3]; 25 mg/kg, 1 × i.p.) was 17.2%, the N-Ac-Glu % release ([3]; 25 mg/kg, 1 × p.o.) was 15.4% and the N-Ac-Glu % release ([3]; 50 mg/kg, 1 × i.p.) was 26.0%. The N-Ac-Glu % release ([3]; 50 mg/kg, 1 × p.o.) was 22.8%, the N-Ac-Glu % release ([3]; 100 mg/kg, 1 × i.p.) was 40.8% and the N-Ac-Glu % release ([3]; 100 mg/kg, 1 × p.o.) was 37.3%. The N-Ac-Glu % release ([3]; 200 mg/kg, 1 × i.p.) was 51.5%, the N-Ac-Glu % release ([3]; 200 mg/kg, 1 × p.o.) was 45.2% and the β-Gal % release ([3]; 25 mg/kg, 1 × i.p.) was 24.1%. The β-Gal % release ([3]; 25 mg/kg, 1 × p.o.) was 20.4%, the β-Gal % release ([3]; 50 mg/kg, 1 × i.p.) was 33.5% and the β-Gal % release ([3]; 50 mg/kg, 1 × p.o.) was 26.9%. It also gave a β-Gal % release ([3]; 100 mg/kg, 1 × i.p.) of 52.9%, a β-Gal % release ([3]; 100 mg/kg, 1 × p.o.) of 43.6% and a β-Gal % release ([3]; 200 mg/kg, 1 × i.p.) of 65.4%. The β-Gal % release ([3]; 200 mg/kg, 1 × p.o.) was 54.8%, the β-Glu % release ([3]; 25 mg/kg, 1 × i.p.) was 20.0% and the β-Glu % release ([3]; 25 mg/kg, 1 × p.o.) was 17.5%. It also gave a β-Glu % release ([3]; 50 mg/kg, 1 × i.p.) of 30.9%, a β-Glu % release ([3]; 50 mg/kg, 1 × p.o.) of 25.1% and a β-Glu % release ([3]; 100 mg/kg, 1 × i.p.) of 42.8%. It also gave a β-Glu % release ([3]; 100 mg/kg, 1 × p.o.) of 38.2%, a β-Glu % release ([3]; 200 mg/kg, 1 × i.p.) of 58.2% and a β-Glu % release ([3]; 200 mg/kg, 1 × p.o.) of 49.8%.
